Results as given in patent US20060004191A1, “Modified sodium iodide symporter proteins and genes for imaging and cancer therapy” (priority 2002, published 2006).
“Also recorded” adds a separate entry of the source.

Assays:
F98/hNIS gliomas [1] = assay: 99mTcO4 scintigraphy of intracerebral F98/hNIS gliomas; type: in vivo, rat; settings: about 20 min after tail vein injection
Description: (§1) Fischer rats weighing 175 to 200 grams (Harlan Sprague Dawley, Indianapolis, Ind.) were stereotactically implanted with tumor cells.^11,21 The tumor cells were either F98 cells or F98 cells which had been infected with and expressed a wild-type NIS protein (see Example 1). All experimental procedures received approval from Institutional Laboratory Animal Care and Use Committee of the Ohio State University. Briefly, rats were sedated by intraperitoneal (i.p.) administration of 120 mg of ketamine/20 mg of xylazine (Fort Dodge, Fort Dodge, IA) per kg of body weight, after which a plastic screw (Arrow Machine Manufacturing, Inc., Richmond, VA) was embedded into the cranium. F98 cells were injected within 10 to 15 seconds through a central hole in the plastic screw into the right hemisphere at a concentration of 10^3 (for therapeutic study) or 10^5 (for imaging study) cells in 10 μl of serum-free DMEM containing 1.4% agarose with a gelling temperature of <30° C. The screw hole was filled with bone wax immediately following withdrawal of the needle, and the operative field was flushed with betadine before the scalp incision was closed with a single sterilized clip.
(§2) Rats were anesthetized by i.p. injection of ketamine/xylazine, and then 2.0 mCi of ^99mTcO4 in 0.2 ml volume was administered via tail vein injection. […]

parental F98 tumors = assay: 99mTcO4 scintigraphy of intracerebral parental F98 tumors; type: in vivo, rat; settings: about 20 min after tail vein injection
Description: as §1, §2

F98/hNIS gliomas [2] = assay: serial 123I scintigraphy, radioiodide retention in tumor; type: in vivo, rat
Description: as §1
Serial ^123I images were obtained to determine the retention of radioiodide in the hNIS-transduced tumors (FIG. 7A). The average survival time for rats implanted with 10^5 F98/hNIS glioma cells was about 14-16 days. For studies of ^123I retention, images were acquired on days 13 to 15 following tumor implantation at which time ^123I (0.25 mCi) was administered via tail vein injection. Modified conjugate images were obtained sequentially with the rat first in dorsal-ventral and then ventral-dorsal positions on the top of the LEUHR collimator at 5 min, 20 min, 1 hr, 4 hr, 24 hr, and 37 hr following injection. […] Regions of interest (ROI) were drawn over the tumor, thyroid, and shoulder region (as a background) in two views (vertex and then ventral) of pinhole images for each different time point, and the geometric means of the count rates (counts/pixel) for each ROI in each view were calculated. […]

[3] = serial 123I scintigraphy, radioiodide retention in thyroid; type: in vivo, rat; settings: in the thyroid, from time activity curve, tail vein injection
Description: Serial ^123I images were obtained to determine the retention of radioiodide in the hNIS-transduced tumors (FIG. 7A). The average survival time for rats implanted with 10^5 F98/hNIS glioma cells was about 14-16 days. For studies of ^123I retention, images were acquired on days 13 to 15 following tumor implantation at which time ^123I (0.25 mCi) was administered via tail vein injection. Modified conjugate images were obtained sequentially with the rat first in dorsal-ventral and then ventral-dorsal positions on the top of the LEUHR collimator at 5 min, 20 min, 1 hr, 4 hr, 24 hr, and 37 hr following injection. The acquisition time at 5 min post-injection image was 5 min, and the acquisition times at subsequent time points were corrected for the physical decay of ^123I. Regions of interest (ROI) were drawn over the tumor, thyroid, and shoulder region (as a background) in two views (vertex and then ventral) of pinhole images for each different time point, and the geometric means of the count rates (counts/pixel) for each ROI in each view were calculated. Biological half-life of radioiodine was estimated based on the time activity curve generated by plotting the tumor ROI count rates versus time.

F98/hNIS tumors = assay: 131I therapy study, intracerebral hNIS-transduced tumors; type: in vivo, rat
Description: as §1
For ^131I therapy studies, rats were implanted stereotatically with 1×10^3 F98 cells on day 0, and the animals were divided into 3 groups: empty vector transduced tumors with ^131I treatment (F98/LXSN+^131I), hNIS transduced tumors without ^131I treatment (F98/hNIS—^131I), hNIS transduced tumors with ^131I treatment (F98/hNIS+^131I). Each group contained 12 rats. To minimize exposure of the thyroid gland to ^131I, rats were placed on 1 ppm thyroxine (T4)-supplemented diet (Harlan Teklad, Madison, Wis.) beginning one week prior to the first day of ^131I treatment. Animals received three i.p. injections, 4 mCi of ^131I per injection, on days 12, 14 and 16 post-implantation for a total of 12 mCi. The tumor size index on day 14 was assumed to be ˜2 mm^2 based on a previous study.^18 Animals were weighed three times per week. […] Therefore, animals displaying these signs were sacrificed, and survival times were determined from the day of tumor implantation to the day of sacrifice plus 1 day.^21,24 The observers were not blinded to sacrifice the rats. To confirm that all animals had progressively growing tumors at the time of death, the brains were removed, fixed in 10% neutral buffered formalin, and then 2-mm coronal sections were cut with a rat brain slicer (Zivic-Miller Laboratories, Inc., Allison Park, PA), and processed for routine histopathological examination. Tumor size was measured as (the longest length)×(the length perpendicular to the longest length) in tumor sections. Survival among different experimental groups was compared using unpaired t test as well as Log-rank test. Tumor sizes among different experimental groups were compared using unpaired t test. The P value of <0.05 were considered statistically significant.

F98/LXSN tumors = assay: 131I therapy study, intracerebral empty vector transduced tumors; type: in vivo, rat
Description: as §1
For ^131I therapy studies, rats were implanted stereotatically with 1×10^3 F98 cells on day 0, and the animals were divided into 3 groups: empty vector transduced tumors with ^131I treatment (F98/LXSN+^131I), hNIS transduced tumors without ^131I treatment (F98/hNIS—^131I), hNIS transduced tumors with ^131I treatment (F98/hNIS+^131I). Each group contained 12 rats. To minimize exposure of the thyroid gland to ^131I, rats were placed on 1 ppm thyroxine (T4)-supplemented diet (Harlan Teklad, Madison, Wis.) beginning one week prior to the first day of ^131I treatment. […] Therefore, animals displaying these signs were sacrificed, and survival times were determined from the day of tumor implantation to the day of sacrifice plus 1 day.^21,24 The observers were not blinded to sacrifice the rats. […] Tumor size was measured as (the longest length)×(the length perpendicular to the longest length) in tumor sections. […]

hNIS = molecular target: T1, hNIS (Homo sapiens, UniProt Q92911); assay: inhibition of induced RAIU in hNIS-transduced F98 cells; type: cell-based
T1 construct: expressed in transfected cells; host or cells: F98 rat glioma cells infected with L-hNIS-SN recombinant retrovirus, G418-selected clone
T1 sequence (Q92911 1-643): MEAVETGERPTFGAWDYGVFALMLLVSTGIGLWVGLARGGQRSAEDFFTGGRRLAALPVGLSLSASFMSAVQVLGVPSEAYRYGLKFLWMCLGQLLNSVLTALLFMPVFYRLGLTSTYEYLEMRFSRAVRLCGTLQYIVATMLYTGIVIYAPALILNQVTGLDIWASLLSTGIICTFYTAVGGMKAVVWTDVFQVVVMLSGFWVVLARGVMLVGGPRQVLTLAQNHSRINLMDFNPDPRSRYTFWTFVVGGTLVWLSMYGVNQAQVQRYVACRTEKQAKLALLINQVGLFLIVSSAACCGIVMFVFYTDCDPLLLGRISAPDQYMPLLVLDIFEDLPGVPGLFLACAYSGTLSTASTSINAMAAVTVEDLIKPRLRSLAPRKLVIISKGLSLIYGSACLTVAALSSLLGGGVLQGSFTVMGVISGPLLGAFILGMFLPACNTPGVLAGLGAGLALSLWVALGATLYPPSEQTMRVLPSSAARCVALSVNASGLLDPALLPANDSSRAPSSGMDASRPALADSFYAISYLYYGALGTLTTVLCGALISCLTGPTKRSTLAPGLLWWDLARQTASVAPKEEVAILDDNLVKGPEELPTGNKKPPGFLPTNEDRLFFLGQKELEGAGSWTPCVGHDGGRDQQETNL
Description: NIS function in the hNIS-transduced F98 glioma cells was tested in vitro by radioiodide uptake assay^5 (RAIU). Cells (2×10^5 cells per well) were seeded in 24-well plates. At various times after seeding, the cells were incubated for 30 min at 37° C., 5.0% CO2 with growth media containing 2.0 μCi Na ^125I and 5-10 μM NaI carrier. The medium was aspirated and cells were quickly washed twice with ice-cold Hank's balanced salt solution (HBSS). Cells were then lysed by incubation with 95% ethanol. The radioactivity of the cell lysate was measured by a γ-counter (Packard Instruments, Downers Grove, Ill., USA). Experiments were performed in triplicate. The RAIU activity of the infected cells was expressed in terms of fold increase compared with that of mock-infected parental cells.

[4] = tested on: endogenous rat NIS in thyroid; assay: thyroid 99mTcO4 scintigraphy and NIS Western blot in rats fed T4-supplemented diet; type: in vivo
Description: Western blot analysis was performed as previously described.^23 Briefly, the tumors were removed from the animals and homogenized in a homogenizing buffer (10 mM Tris-HCl (pH 7.5), 5 mM NaCl, 1 mM EDTA, 0.1 mM PMSF, 50 μg/ml leupeptin) containing 0.25 M sucrose. The lysates were centrifuged at 700 g for 10 min at 4° C. The supernatants were further centrifuged at 200,000 g for 60-90 min at 4° C. to obtain membrane fractions, which were resuspended in homogenizing buffer without sucrose and kept at −80° C. until use. The membrane fractions ([…] per lane) were solubilized for 30 min at 37° C. in the same volume of reducing sample buffer (0.125 M Tris-HCl (pH 6.8), 4% SDS, 10% β-mercaptoethanol, 20% glycerol) and subjected to 4-20% gradient or 7.5% SDS-PAGE. The proteins were transferred on to a nitrocellulose filter which was then blocked with 5% nonfat dry mild in TBST buffer (10 mM Tris-HCl (pH 8.0), 150 mM NaCl, 0.1% Tween 20) at 4° C. overnight. […]
Rats fed a T4-supplemented diet were expected to have reduced RAIU in thyroid, as the endogenous NIS expression and activity in thyroid tissues is TSH-dependent. […] In comparison, thyroid was readily detectable by ^99mTcO4 scintigraphy in rats fed a normal diet. […]

[5] = F98/hNIS with 131I treatment group
[6] = F98/LXSN with 131I treatment group

SMILES: [O]=[99Tc](=[O])(=[O])[O-] [99mTcO4]
- 99mTcO4 uptake in tumor (F98/hNIS gliomas [1]): intense
- 99mTcO4 uptake in tumor (parental F98 tumors): no ^99mTcO4 uptake was found

SMILES: [123IH] [123I]
- 123I uptake in tumor (F98/hNIS gliomas [2]; F98/hNIS gliomas, by 37 hours post-injection): barely detectable
- radioiodide uptake in tumor (F98/hNIS gliomas [2]; F98/hNIS gliomas, through 24 hrs post-injection): evident
- biological half-life of 123I (F98/hNIS gliomas [2]; in F98/hNIS gliomas, from time activity curve, tail vein injection): 10 hours
- biological half-life of 123I [3]: greater than 20 hours

SMILES: [131IH] [131I]
- average survival time (F98/hNIS tumors; F98/hNIS tumors with 131I treatment, 3 i.p. injections, total 12 mCi): 45 ± 8.6 days
- prolongation of average survival time (F98/hNIS tumors; F98/hNIS with 131I compared to F98/LXSN with 131I, P<0.01): ~2 weeks
- prolongation of average survival time (F98/hNIS tumors; F98/hNIS with 131I compared to F98/hNIS without 131I, P<0.05): 6 days
- tumor size at sacrifice, length perpendicular to the longest length (F98/hNIS tumors; [5]): 6.1±1.5 mm
- tumor size at sacrifice, longest length (F98/hNIS tumors; [5]): 8.5±1.9 mm
- average survival time (F98/LXSN tumors; F98/LXSN tumors with 131I treatment, 3 i.p. injections, total 12 mCi): 30.4 ± 3.2 days
- tumor size at sacrifice, length perpendicular to the longest length (F98/LXSN tumors; [6]): 6.4±1.6 mm
- tumor size at sacrifice, longest length (F98/LXSN tumors; [6]): 8.7±1.6 mm

SMILES: [O-][Cl+3]([O-])([O-])O [NaClO4, sodium perchlorate]
- effect on induced RAIU (hNIS): suppressed; also recorded: inhibited

SMILES: N[C@@H](Cc1cc(I)c(Oc2cc(I)c(O)c(I)c2)c(I)c1)C(=O)O [T4, thyroxine]
- NIS glycoprotein in thyroid by Western blot ([4]; rats fed T4-supplemented diet): barely detected
- thyroid detectability by 99mTcO4 scintigraphy ([4]; rats fed T4-supplemented diet for 11 days): not detectable
